Source: ChEMBL document CHEMBL3813627, “Preventive effect of a novel diosgenin derivative on arterial and venous thrombosis in vivo” (Bioorg Med Chem Lett, 2016)
Calls of active or inactive are those of the source. The calls are words filed in the database; no cut-off is given here.

What was measured:
[1] = system: Mus musculus; experiment: Toxicity in Balb/c mouse assessed as platelet count at 92.1 mg/kg, ig bid for 7 days (reference value: 802 +/- 74 10^9/L); type: organism-based; details: in vivo, po, 168 h
[2] = system: Rattus norvegicus; experiment: In vivo activation of coagulation factor12 in Sprague-Dawley rat at 64 mg/kg, ig bid for 7 days by automated coagulometry; type: functional, organism-based
[3] = organism: Rattus norvegicus; experiment: Gastric toxicity in Sprague-Dawley rat assessed as fibrotic changes treated for 49 days by hematoxylin and eosin staining based microscopic analysis; type: organism-based; details: in vivo, 1176 h
[4] = system: Rattus norvegicus; experiment: In vivo activation of coagulation factor11 in Sprague-Dawley rat at 64 mg/kg, ig bid for 7 days by automated coagulometry; type: functional, organism-based
[5] = system: Rattus norvegicus; experiment: In vivo activation of coagulation factor8 in Sprague-Dawley rat at 64 mg/kg, ig bid for 7 days by automated coagulometry; type: functional, organism-based
[6] = system: Rattus norvegicus; experiment: Antiplatelet activity in platelet-rich plasma isolated from Sprague-Dawley rat assessed as ADP-induced platelet aggregation at 64 mg/kg, ig bid for 7 days measured for 5 mins by light transmission aggregometry (reference value: 57.57 +/- 2.43 %); type: functional
[7] = system: Mus musculus; experiment: Toxicity in Balb/c mouse assessed as white blood cell count at 92.1 mg/kg, ig bid for 7 days (reference value: 7.7 +/- 0.65 10^9/L); type: organism-based; details: in vivo, po, 168 h
[8] = system: Rattus norvegicus; experiment: Antiplatelet activity in platelet-rich plasma isolated from ig dosed Sprague-Dawley rat assessed as inhibition of ADP-induced platelet aggregation administered bid for 7 days measured for 5 mins by light transmission aggregometry; type: functional, organism-based
[9] = system: Rattus norvegicus; experiment: Anti-thrombotic activity in Sprague-Dawley rat model of FeCl3-induced venous thrombosis assessed as venous thrombus length at 64 mg/kg, ig bid for 7 days by vernier caliper method (reference value: 10.66 +/- 0.81 mm); type: functional
[10] = system: Mus musculus; experiment: Toxicity in Balb/c mouse assessed as tail bleeding time at 92.1 mg/kg, ig bid for 7 days (reference value: 186 +/- 12 sec); type: organism-based; details: in vivo, po
[11] = system: Rattus norvegicus; experiment: In vivo activation of coagulation factor9 in Sprague-Dawley rat at 64 mg/kg, ig bid for 7 days by automated coagulometry; type: functional, organism-based
[12] = system: Mus musculus; experiment: Hepatotoxicity in Balb/c mouse assessed as histopathological changes at 92.1 to 575.5 mg/kg, po administered as single dose for 7 days by hematoxylin and eosin staining based microscopic analysis; type: toxicity, organism-based; details: in vivo, 168 h
[13] = system: Rattus norvegicus; experiment: In vivo activation of coagulation factor10 in Sprague-Dawley rat at 64 mg/kg, ig bid for 7 days by automated coagulometry; type: functional, organism-based
[14] = system: Mus musculus; experiment: Toxicity in Balb/c mouse assessed as red blood cell count at 92.1 mg/kg, ig bid for 7 days (reference value: 7.55 +/- 0.59 10^12/L); type: organism-based; details: in vivo, po, 168 h
[15] = system: Rattus norvegicus; experiment: Anticoagulant activity in platelet-rich plasma isolated from Sprague-Dawley rat assessed as activated partial thromboplastin time at 64 mg/kg, ig bid for 7 days (reference value: 17.6 +/- 0.92 secs); type: functional
[16] = system: Mus musculus; experiment: Toxicity in Balb/c mouse assessed as hematocrit at 92.1 mg/kg, ig bid for 7 days (reference value: 40.5 +/- 3.5 %); type: organism-based; details: in vivo, po, 168 h
[17] = system: Rattus norvegicus; experiment: Anticoagulant activity in platelet-rich plasma isolated from Sprague-Dawley rat assessed as thrombin time at 64 mg/kg, ig bid for 7 days (reference value: 47.1 +/- 3.1 secs); type: functional
[18] = system: Rattus norvegicus; experiment: Anticoagulant activity in platelet-rich plasma isolated from Sprague-Dawley rat assessed as prothrombin time at 64 mg/kg, ig bid for 7 days (reference value: 11.6 +/- 0.98 secs); type: functional
[19] = system: Rattus norvegicus; experiment: Anti-thrombotic activity in Sprague-Dawley rat model of FeCl3-induced arterial thrombosis assessed as arterial thrombus length at 64 mg/kg, ig bid for 7 days by vernier caliper method (reference value: 10.5 +/- 0.83 mm); type: functional
[20] = organism: Rattus norvegicus; experiment: Gastric toxicity in Sprague-Dawley rat assessed as gastric mucosal damage score treated for 49 days by hematoxylin and eosin staining based microscopic analysis; type: organism-based, Gastric mucosa; details: in vivo, 1176 h
[21] = organism: Rattus norvegicus; experiment: Gastric toxicity in Sprague-Dawley rat assessed as angiogenesis treated for 49 days by hematoxylin and eosin staining based microscopic analysis; type: organism-based; details: in vivo, 1176 h
[22] = system: Rattus norvegicus; experiment: Anti-thrombotic activity in Sprague-Dawley rat model of FeCl3-induced arterial thrombosis assessed as arterial thrombus weight at 64 mg/kg, ig bid for 7 days (reference value: 12.94 +/- 0.7 mg); type: functional
[23] = system: Mus musculus; experiment: Hepatotoxicity in Balb/c mouse assessed as changes in serum GPT level at 92.1 to 575.5 mg/kg, po administered as single dose for 7 days; type: toxicity, organism-based; details: in vivo, 168 h
[24] = system: Mus musculus; experiment: Toxicity in Balb/c mouse assessed as hemoglobin count at 92.1 mg/kg, ig bid for 7 days (reference value: 143 +/- 11.9 g/L); type: organism-based; details: in vivo, po, 168 h
[25] = system: Mus musculus; experiment: Toxicity in Balb/c mouse assessed as mortality at 92.1 to 575.5 mg/kg, po administered as single dose for 7 days; type: organism-based; details: in vivo, 168 h
[26] = system: Mus musculus; experiment: Hepatotoxicity in Balb/c mouse assessed as changes in serum GOT level at 92.1 to 575.5 mg/kg, po administered as single dose for 7 days; type: toxicity, organism-based; details: in vivo, 168 h
[27] = system: Rattus norvegicus; experiment: Anti-thrombotic activity in Sprague-Dawley rat model of FeCl3-induced venous thrombosis assessed as venous thrombus weight at 64 mg/kg, ig bid for 7 days (reference value: 17.1 +/- 0.69 mg); type: functional

Compound: CC(=O)Oc1ccccc1C(=O)O[C@H]1CC[C@@]2(C)C(=CC[C@H]3[C@@H]4C[C@@H]5O[C@]6(CC[C@@H](C)CO6)[C@@H](C)[C@@H]5[C@@]4(C)CC[C@@H]32)C1
- Activity [1]: 790 ×10⁹ /L
- Activity [2]: inactive
- Activity [3]: Non-toxic
- Activity [4]: inactive
- Activity [5]: Active
- Activity [6]: 29.42%
- Activity [7]: 7.82 ×10⁹ /L
- inhibition [8]: Dose-dependent effect
- Activity [9]: 5.83 mm
- Time [10]: 676 s
- Activity [11]: inactive
- Activity [12]: Non-toxic
- Activity [13]: inactive
- Activity [14]: 7.05 ×10¹² /L
- APTT [15]: 22.6 s
- Activity [16]: 38.9%
- TT [17]: 46.7 s
- PT [18]: 11.4 s
- Activity [19]: 5 mm
- UI [20]: 0.66
- Activity [21]: Non-toxic
- Activity [22]: 6.34 mg
- Activity [23]: Non-toxic
- Activity [24]: 133 g/L
- Activity [25]: Non-toxic
- Activity [26]: Non-toxic
- Activity [27]: 9.12 mg
